For test [1], the system named is L1210. Description: cells. The test is classed as cell-based, mouse. In outline: (§1)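 Compound exposure ran 72 h at six concentrations (0–1000 nM or 0–10000 nM, duplicate) on cells plated at 30,000 cells/mL in 10% FBS DMEM. A closing 37 °C incubation took 15 min (HCT116) or 5 min (L1210).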
The subject of test [2] is HCT116. Particulars: cited from earlier work; for pIC50: Table 1, footnote b: Reported in ref. 41.
A further test deals with HCT116/VM46. Nature of the test: cells. The test is classed as cell-based, human. Particulars: for differential in activity between sensitive and resistant HCT116 cell lines: HCT116/VM46 vs HCT116; for pIC50: read-out: IC50 HCT116/VM46. The protocol: Compounds were tested for their cell growth inhibition of L1210 (ATCC no. CCL-219, mouse lymphocytic leukemia), HCT116 (ATCC no. CCL-247, human colorectal carcinoma), and HCT116/VM46 (a vinblastine-resistant strain of HCT116) cells in culture. A population of cells (>1×10^6 cells/mL as determined with a hemocytometer) was diluted with Dulbecco's Modified Eagle Medium (DMEM, Gibco) containing 10% fetal bovine serum (FBS, Gibco) to give a final concentration of 30,000 cells/mL. To each well of a 96-well plate (Corning® Costar®) was added 100 μL of the cell media solution with a multichannel pipet. The cultures were incubated at 37° C. in an atmosphere of 5% CO2 and 95% humidified air for 24 hours.
The test compounds were then added to the plate as follows: test compounds were diluted in DMSO to a concentration of 1 mM. 10-Fold serial dilutions in DMSO were next performed on a separate 96-well plate. Fresh culture media (100 μL) was added to each well of cells resulting in 200 μL of medium per well followed by 2 μL of each test agent. Compounds were tested in duplicate (n=2-8 times) at six concentrations between 0-1000 nM or 0-10000 nM. Following the addition of compound, cultures were incubated for an additional 72 hours.
The plates were incubated at 37° C. for 5 minutes (L1210) or 15 min (HCT116 and HCT116/VM46). After the given incubation time, 50 μL of 0.1 N NaOH was added to each well and the absorption at 405 nm was determined using a 96 well plate reader. […]

For test [3], the system named is L1210. Particulars: Table 1, footnote b: Reported in ref. 41; cited from earlier work.
For test [4], the system named is HCT116. Description: cells. Particulars: for pIC50: read-out: IC50 HCT116; for potency relative to vinblastine (less potent / reduced activity): vinblastine-sensitive cell lines. The format is cell-based, human. In outline: as §1
The test system of another test is A549-T24. Description: cells. The format is cell-based, human. The text has this: (§2) 2001, 98:11737; Kavallaris et al., Brit. J. Cancer. 1999, 80:1020; and Kavallaris et al., J. Clin. Invest. 1997, 100:1282]. As a result, the comparison of cell growth inhibition of candidate drugs against A549 vs A549-T24 has been used to characterize potential resistance due to increased expression of class III β-tubulin [Goncalves et al., Proc. Natl. Acad. Sci. USA. 2001, 98:11737; Kavallaris et al., Brit. J. Cancer. 1999, 80:1020; and Kavallaris et al., J. Clin. Invest. 1997, 100:1282].

Another test relates to A549. Description: cells. The test is classed as cell-based, human. Particulars: read-out: IC50 A549.
Excerpt: as §2

In another test the test system is Tubulin. Particulars: Table 9, displacement of tubulin bound BODIPY-vinblastine.
Another test in a line: cells. The format is cell-based, human. Particulars: range over L1210 and HCT116, stated in text; read-out: IC50 against vinblastine-sensitive cell lines. In outline:
as §1

pIC50: −log10 of the molar value. Read-outs that look alike come from different tables or passages of the source. Some results are limits rather than exact numbers.

Procedure for Tubulin: Control studies were performed with BODIPY-VBL in the absence of a competitive ligand (control 1, maximum FI enhancement) and in the absence of tubulin (control 2, no FI enhancement). Percent (%) BODIPY-VBL displacement was calculated by the formula: (control 1 FI−experiment FI)/(Control 1 FI−Control 2 FI)×100%. Reported values are the average of 5 measurements±SD.

In the case of `CCC1(NC=O)CC2CN(CCc3c([nH]c4ccccc34)C(C(=O)OC)(c3cc4c(cc3OC)N(C)C3C(O)(C(=O)OC)C(OC(C)=O)C5(CC)C=CCN6CCC43C65)C2)C1` (stereo not drawn) [Compound 9], the pIC50 in the test with L1210 [1] is 9.30; with HCT116 [2], 7.07; in the test with HCT116/VM46, 8.12; in the test with L1210 [3], 7.19; in the test with HCT116 [4], 9.22; in the test with A549-T24, 9.15. Also, the pIC50 with A549 was 9.15. In addition, in the test with HCT116/VM46, the “differential in activity between sensitive and resistant HCT116 cell lines” value is recorded as around 80 fold. Besides, the “activity relative to free amine Compound 6 (more active)” value in the test with HCT116 [4] turned out to be 10 fold. Further, in the test on HCT116 [4], the “potency relative to vinblastine (less potent / reduced activity)” value is recorded as “approximately 10 fold”.

As to `CC[C@]1(NC(C)=O)C[C@H]2CN(CCc3c([nH]c4ccccc34)[C@@](C(=O)OC)(c3cc4c(cc3OC)N(C)[C@H]3[C@@](O)(C(=O)OC)[C@H](OC(C)=O)[C@]5(CC)C=CCN6CC[C@]43[C@@H]65)C2)C1` [Compound 10, 20′-Acetamidovinblastine], the pIC50 in the test with HCT116 [2] is 7.05. In the test with HCT116/VM46, the “differential in activity between sensitive and resistant HCT116 cell lines” value was around 80 fold. In the test on L1210 [3], the pIC50 was 7.19. In the test with HCT116 [4], the “activity relative to free amine Compound 6 (more active)” value was found to be 10 fold and the “potency relative to vinblastine (less potent / reduced activity)” value is given as “approximately 10 fold”.

Consider `CC[C@]1(NC(=O)C(F)(F)F)C[C@H]2CN(CCc3c([nH]c4ccccc34)[C@@](C(=O)OC)(c3cc4c(cc3OC)N(C)[C@H]3[C@@](O)(C(=O)OC)[C@H](OC(C)=O)[C@]5(CC)C=CCN6CC[C@]43[C@@H]65)C2)C1` [Compound 11], for which the results for the pIC50 in the test with HCT116 [2] and in the test with L1210 [3] were 6.16 and 6.18, respectively.

For `CC[C@]1(NC(=O)c2ccc(C)c(C)c2)C[C@H]2CN(CCc3c([nH]c4ccccc34)[C@@](C(=O)OC)(c3cc4c(cc3OC)N(C)[C@H]3[C@@](O)(C(=O)OC)[C@H](OC(C)=O)[C@]5(CC)C=CCN6CC[C@]43[C@@H]65)C2)C1` [Compound 28], the pIC50 with L1210 [1] was 8.52; in the test on L1210 [1] (Table 2) it was 8.52; in the test on HCT116/VM46 (Table 2), 8.12; in the test with HCT116/VM46, 8.12; with HCT116 [4] (Table 2), 8.35; in the test with HCT116 [4], 8.35. In addition, the pIC50 is 8.60 in the test with A549-T24 and 8.30 in the test on A549. Moreover, the IC50 in the test on HCT116/VM46 (Table 10, read-out: IC50 (nM), HCT116/VM46) was 7.6 nM; with HCT116 [4] (Table 9, read-out: IC50 (nM, HCT116)) it was 4.5 nM; with HCT116 [4] (Table 10, read-out: IC50 (nM), HCT116), 4.5 nM. Also, the “% displacement” value in the test with Tubulin is given as 67 ± 8%.

As to `CCC1(O)C[C@H]2CN(CCc3c([nH]c4ccc(F)cc34)[C@@](C(=O)OC)(c3cc4c(cc3OC)N(C)C3C(O)(C(=O)OC)[C@H](OC(C)=O)[C@]5(CC)C=CCN6CC[C@]43[C@@H]65)C2)C1` (stereo partly drawn) [Compound 187, 10′-fluorovinblastine, reference compound], the pIC50 with L1210 [1] (Mus musculus, L1210, Table 8, 10′-F compounds) is 9.22; in the test with L1210 [1] (Mus musculus, L1210, table b183), 9.15; in the test with HCT116 [4] (Homo sapiens, HCT-116, Table 8, 10′-F compounds) it was 9.15; in the test on HCT116 [4] (Homo sapiens, HCT-116, table b183), 9.10; in the test on A549-T24 (Homo sapiens), above 8.10; with A549 (Homo sapiens, A549) it was 8.54. In the test with HCT116 [2] (recent work, Gotoh et al. 2011), the “improvement in activity over vinblastine” value is reported as around 10 fold.

Regarding `CC[C@]1(NC(=O)c2ccc(OC)c(OC)c2)C[C@H]2CN(CCc3c([nH]c4ccc(F)cc34)[C@@](C(=O)OC)(c3cc4c(cc3OC)N(C)[C@H]3[C@@](O)(C(=O)OC)[C@H](OC(C)=O)[C@]5(CC)C=CCN6CC[C@]43[C@@H]65)C2)C1` [Compound 190], the pIC50 with L1210 [1] (Table 8, 10′-F compounds) is 10.22; in “cells” it was 10.10 to 10.22; with HCT116 [4] (Table 8, 10′-F compounds) it was 10.10.

Values taken from patent publication US10689381B2 (priority 2017, dated 2020).
